Values quoted from earlier work in patent publication US5484803A, “Transcutaneous in vivo activation of photosensitive agents in blood” (priority 1995, dated 1996).

Details: in vivo; cited from earlier work

Substance: benzoprophyrin derivative monoacid ring A [BPD]
- time of accumulation of BPD in the skin: up to 5 hours
